The results in this text go back to the supplement of paper PMC11208160.
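Note: IS621 bridge recombinase in Escherichia coli cells against a fixed T5 target plasmid.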

The series can be described thus: recombinant UMI read abundance after kanamycin selection (control-corrected) (log10(CPM+1)); higher = more efficient recombination; extreme values may be limits of the assay; sequences stand for … in AGTGCAGAGAAAATCGGCCAGTTTTCTCTGCCTGCAGTCCGCATGCCGTGGGACCCCTTGGGTTCTAACCTGTTGCCTAGATTTATGCAGCGGACTGCCTTTCTCCCAAAGTGATAAACCGG…AGGTTGGTTTCACT; site = the 11-nt donor. The procedure, abridged:
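After plating on IPTG (0.07 mM) plus kanamycin, or unselected, in two replicates, recombinant UMIs were PCR-amplified across the donor–target junction and sequenced. The cells were Escherichia coli co-electroporated with a UMI-tagged donor and donor-binding-loop pair library and a target plasmid with a fixed target and T7-inducible IS621 bridge recombinase. Values are log10(CPM+1), with CPM averaged over replicates and scaled by control-derived factors.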
For “TACTTGACATGGACCGGTTTTCCCGGTAATCCGTATTTGCG (site TACTTGACTCG)”, the “recombinant UMI read abundance (log10)” value came out at 0.524.

On to “TACTTGACATGGACCGGTTTTCCCGGTAATCCGTATTTGCG (site TACTTGACTGG)”, for which the “recombinant UMI read abundance (log10)” value is 0.

“TACTTGACATGGACCGGTTTTCCCGGTAATCCGTATTTGCG (site TACTTGACTTG)”: the “recombinant UMI read abundance (log10)” value turned out to be 0.

For “TACTTGACATGGACCGGTTTTCCCGGTAATCCGTATTTGTT (site TACTTGACTAA)”, the “recombinant UMI read abundance (log10)” value came to 0.00709.

As to “TACTTGACATGGACCGGTTTTCCCGGTAATCCGTATTTGTT (site TACTTGACTAC)”, the “recombinant UMI read abundance (log10)” value is 0.0106.

For “TACTTGACATGGACCGGTTTTCCCGGTAATCCGTATTTGTT (site TACTTGACTAG)”, the “recombinant UMI read abundance (log10)” value is 0.00636.

On to “TACTTGACATGGACCGGTTTTCCCGGTAATCCGTATTTGTT (site TACTTGACTAT)”, for which the “recombinant UMI read abundance (log10)” value worked out at 0.00466.

For “TACTTGGCATGGACCGGTTTTCCCGGTAATCCGTATTTGCT (site TACTTGACTAG)”, the “recombinant UMI read abundance (log10)” value worked out at 0.00409.

For the sequence “TACTTGGCATGGACCGGTTTTCCCGGTAATCCGTATTTGCT (site TACTTGCCTAG)”, the “recombinant UMI read abundance (log10)” value is 0.00558.

“TACTTGGCATGGACCGGTTTTCCCGGTAATCCGTATTTGCT (site TACTTGGCTAG)”: the “recombinant UMI read abundance (log10)” value came out at 0.00377.

As to “TACTTGGCATGGACCGGTTTTCCCGGTAATCCGTATTTGCT (site TACTTGTCTAG)”, the “recombinant UMI read abundance (log10)” value was found to be 0.

Take “TACTTGGCATGGACCGGTTTTCCCGGTAATCCGTATTTGGA (site AACTTGGCTTC)”: the “recombinant UMI read abundance (log10)” value stood at 0.0162.

With “TACTTGGCATGGACCGGTTTTCCCGGTAATCCGTATTTGGA (site CACTTGGCTTC)”, the “recombinant UMI read abundance (log10)” value was found to be 0.00371.

Turning to “TACTTGGCATGGACCGGTTTTCCCGGTAATCCGTATTTGGA (site GACTTGGCTTC)”, the “recombinant UMI read abundance (log10)” value is 0.00882.

Take “TACTTGGCATGGACCGGTTTTCCCGGTAATCCGTATTTGGA (site TACTTGGCTTC)”: the “recombinant UMI read abundance (log10)” value was 0.216.

Consider “TACTTGTCATGGACCGGTTTTCCCGGTAATCCGTATTTGGG (site TACTTGTCTCC)”, for which the “recombinant UMI read abundance (log10)” value turned out to be 0.17.

Regarding “TACTTTACATGGACCGGTTTTCCCGGTAATCCGTATTTGCT (site TACTTAACTAG)”, the “recombinant UMI read abundance (log10)” value came to 0.

For the sequence “TACTTTACATGGACCGGTTTTCCCGGTAATCCGTATTTGCT (site TACTTCACTAG)”, the “recombinant UMI read abundance (log10)” value was 1.36.

Take “TACTTTACATGGACCGGTTTTCCCGGTAATCCGTATTTGCT (site TACTTGACTAG)”: the “recombinant UMI read abundance (log10)” value amounted to 0.00292.

In the case of “TACTTTACATGGACCGGTTTTCCCGGTAATCCGTATTTGCT (site TACTTTACTAG)”, the “recombinant UMI read abundance (log10)” value was determined as 1.01.

As for “TAGAATACATGGACCGGTTTTCCCGGTAATCCGTATTTGGA (site TAGAATACTTA)”, the “recombinant UMI read abundance (log10)” value was determined as 0.00272.

Consider “TAGAATACATGGACCGGTTTTCCCGGTAATCCGTATTTGGA (site TAGAATACTTC)”, for which the “recombinant UMI read abundance (log10)” value amounted to 1.99.

For the sequence “TAGAATACATGGACCGGTTTTCCCGGTAATCCGTATTTGGA (site TAGAATACTTG)”, the “recombinant UMI read abundance (log10)” value stood at 0.

Turning to “TAGAATACATGGACCGGTTTTCCCGGTAATCCGTATTTGGA (site TAGAATACTTT)”, the “recombinant UMI read abundance (log10)” value worked out at 0.731.

For “TAGACAACATGGACCGGTTTTCCCGGTAATCCGTATTTGAG (site TAGACAACTCT)”, the “recombinant UMI read abundance (log10)” value was 0.821.

Consider “TAGAGCGCATGGACCGGTTTTCCCGGTAATCCGTATTTGTG (site TAGAGCGCTCA)”, for which the “recombinant UMI read abundance (log10)” value worked out at 1.05.

On to “TAGAGTACATGGACCGGTTTTCCCGGTAATCCGTATTTGCA (site TAGAATACTTG)”, for which the “recombinant UMI read abundance (log10)” value stood at 1.37.

Regarding “TAGAGTACATGGACCGGTTTTCCCGGTAATCCGTATTTGCA (site TAGACTACTTG)”, the “recombinant UMI read abundance (log10)” value was found to be 0.88.

As to “TAGAGTACATGGACCGGTTTTCCCGGTAATCCGTATTTGCA (site TAGAGTACTTG)”, the “recombinant UMI read abundance (log10)” value was found to be 2.08.

As to “TAGAGTACATGGACCGGTTTTCCCGGTAATCCGTATTTGCA (site TAGATTACTTG)”, the “recombinant UMI read abundance (log10)” value was found to be 0.

Consider “TAGATAACATGGACCGGTTTTCCCGGTAATCCGTATTTGTG (site TAGATAACTCA)”, for which the “recombinant UMI read abundance (log10)” value was 1.2.

“TAGATAGCATGGACCGGTTTTCCCGGTAATCCGTATTTGAA (site TAGATAGCTTT)”: the “recombinant UMI read abundance (log10)” value came out at 2.07.

With “TAGATAGCATGGACCGGTTTTCCCGGTAATCCGTATTTGAA (site TAGCTAGCTTT)”, the “recombinant UMI read abundance (log10)” value is 0.0111.

For the sequence “TAGATAGCATGGACCGGTTTTCCCGGTAATCCGTATTTGAA (site TAGGTAGCTTT)”, the “recombinant UMI read abundance (log10)” value is 0.0819.

“TAGATAGCATGGACCGGTTTTCCCGGTAATCCGTATTTGAA (site TAGTTAGCTTT)”: the “recombinant UMI read abundance (log10)” value worked out at 0.173.

Consider “TAGCACGCATGGACCGGTTTTCCCGGTAATCCGTATTTGGG (site AAGCACGCTCC)”, for which the “recombinant UMI read abundance (log10)” value stood at 0.0104.

For the sequence “TAGCACGCATGGACCGGTTTTCCCGGTAATCCGTATTTGGG (site CAGCACGCTCC)”, the “recombinant UMI read abundance (log10)” value came out at 0.00759.

On to “TAGCACGCATGGACCGGTTTTCCCGGTAATCCGTATTTGGG (site GAGCACGCTCC)”, for which the “recombinant UMI read abundance (log10)” value turned out to be 0.0209.

Turning to “TAGCACGCATGGACCGGTTTTCCCGGTAATCCGTATTTGGG (site TAGCACGCTCC)”, the “recombinant UMI read abundance (log10)” value amounted to 0.0358.

Consider “TAGCCGTCATGGACCGGTTTTCCCGGTAATCCGTATTTGGT (site TAGCCATCTAC)”, for which the “recombinant UMI read abundance (log10)” value is 0.764.

Take “TAGCCGTCATGGACCGGTTTTCCCGGTAATCCGTATTTGGT (site TAGCCCTCTAC)”: the “recombinant UMI read abundance (log10)” value was 0.

With “TAGCCGTCATGGACCGGTTTTCCCGGTAATCCGTATTTGGT (site TAGCCGTCTAC)”, the “recombinant UMI read abundance (log10)” value amounted to 0.776.

In the case of “TAGCCGTCATGGACCGGTTTTCCCGGTAATCCGTATTTGGT (site TAGCCTTCTAC)”, the “recombinant UMI read abundance (log10)” value came to 0.013.

On to “TAGCCTTCATGGACCGGTTTTCCCGGTAATCCGTATTTGGA (site TAGCCTTCTAC)”, for which the “recombinant UMI read abundance (log10)” value was 0.0179.

Regarding “TAGCCTTCATGGACCGGTTTTCCCGGTAATCCGTATTTGGA (site TAGCCTTCTCC)”, the “recombinant UMI read abundance (log10)” value was 0.02.

Take “TAGCCTTCATGGACCGGTTTTCCCGGTAATCCGTATTTGGA (site TAGCCTTCTGC)”: the “recombinant UMI read abundance (log10)” value was 0.

For “TAGCCTTCATGGACCGGTTTTCCCGGTAATCCGTATTTGGA (site TAGCCTTCTTC)”, the “recombinant UMI read abundance (log10)” value amounted to 0.00303.

Consider “TAGCCTTCATGGACCGGTTTTCCCGGTAATCCGTATTTGGG (site TAGCCTTCTAC)”, for which the “recombinant UMI read abundance (log10)” value turned out to be 0.

In the case of “TAGCCTTCATGGACCGGTTTTCCCGGTAATCCGTATTTGGG (site TAGCCTTCTCC)”, the “recombinant UMI read abundance (log10)” value was 0.0175.

On to “TAGCCTTCATGGACCGGTTTTCCCGGTAATCCGTATTTGGG (site TAGCCTTCTGC)”, for which the “recombinant UMI read abundance (log10)” value worked out at 0.

Turning to “TAGCCTTCATGGACCGGTTTTCCCGGTAATCCGTATTTGGG (site TAGCCTTCTTC)”, the “recombinant UMI read abundance (log10)” value is 0.0097.

In the case of “TAGCGAACATGGACCGGTTTTCCCGGTAATCCGTATTTGGA (site TAGCGAACTTC)”, the “recombinant UMI read abundance (log10)” value stood at 1.05.

As for “TAGCGAGCATGGACCGGTTTTCCCGGTAATCCGTATTTGAA (site TAGCAAGCTTT)”, the “recombinant UMI read abundance (log10)” value amounted to 1.3.

For “TAGCGAGCATGGACCGGTTTTCCCGGTAATCCGTATTTGAA (site TAGCCAGCTTT)”, the “recombinant UMI read abundance (log10)” value came out at 0.0145.

With “TAGCGAGCATGGACCGGTTTTCCCGGTAATCCGTATTTGAA (site TAGCGAGCTTT)”, the “recombinant UMI read abundance (log10)” value was 1.41.

For the sequence “TAGCGAGCATGGACCGGTTTTCCCGGTAATCCGTATTTGAA (site TAGCTAGCTTT)”, the “recombinant UMI read abundance (log10)” value worked out at 0.00707.

“TAGCGAGCATGGACCGGTTTTCCCGGTAATCCGTATTTGTA (site TAGCGAGCTTA)”: the “recombinant UMI read abundance (log10)” value was determined as 1.82.

For “TAGCGGCCATGGACCGGTTTTCCCGGTAATCCGTATTTGAA (site TAGCGGCCTTT)”, the “recombinant UMI read abundance (log10)” value is 0.205.

Turning to “TAGCGTACATGGACCGGTTTTCCCGGTAATCCGTATTTGTA (site TAGCGTACTTA)”, the “recombinant UMI read abundance (log10)” value was 1.2.

Turning to “TAGCTAACATGGACCGGTTTTCCCGGTAATCCGTATTTGAA (site TAGCTAACTTT)”, the “recombinant UMI read abundance (log10)” value was 1.09.

For the sequence “TAGCTAACATGGACCGGTTTTCCCGGTAATCCGTATTTGAA (site TAGCTACCTTT)”, the “recombinant UMI read abundance (log10)” value was found to be 0.00585.

For the sequence “TAGCTAACATGGACCGGTTTTCCCGGTAATCCGTATTTGAA (site TAGCTAGCTTT)”, the “recombinant UMI read abundance (log10)” value is 0.00737.

In the case of “TAGCTAACATGGACCGGTTTTCCCGGTAATCCGTATTTGAA (site TAGCTATCTTT)”, the “recombinant UMI read abundance (log10)” value was found to be 0.429.

Consider “TAGCTACCATGGACCGGTTTTCCCGGTAATCCGTATTTGAA (site TAGCTAACTTT)”, for which the “recombinant UMI read abundance (log10)” value stood at 0.00682.

For “TAGCTACCATGGACCGGTTTTCCCGGTAATCCGTATTTGAA (site TAGCTACCTTT)”, the “recombinant UMI read abundance (log10)” value amounted to 0.00616.

Consider “TAGCTACCATGGACCGGTTTTCCCGGTAATCCGTATTTGAA (site TAGCTAGCTTT)”, for which the “recombinant UMI read abundance (log10)” value was 0.00385.

For “TAGCTACCATGGACCGGTTTTCCCGGTAATCCGTATTTGAA (site TAGCTATCTTT)”, the “recombinant UMI read abundance (log10)” value came to 0.784.

For the sequence “TAGCTATCATGGACCGGTTTTCCCGGTAATCCGTATTTGAA (site TAGCTAACTTT)”, the “recombinant UMI read abundance (log10)” value turned out to be 0.00325.
